Results from patent US20260258050A1, “IMMUNOMODULATOR” (HITGEN INC., priority 2023, published 2026).

biological target: T1, Human IL-17A (Homo sapiens, UniProt Q16552); test: IL-17A enzyme-linked immunosorbent assay (competitive ELISA, IL-17A/IL-17Ra receptor-ligand binding); parameters: purchased Sino Biological Inc. 12047-H07B; conditions: human IL-17A coated plate, human IL-17Ra, read-out: IC50, inhibitory activity of compounds on human IL-17A
T1 sequence (Q16552 20-155 limits assumed): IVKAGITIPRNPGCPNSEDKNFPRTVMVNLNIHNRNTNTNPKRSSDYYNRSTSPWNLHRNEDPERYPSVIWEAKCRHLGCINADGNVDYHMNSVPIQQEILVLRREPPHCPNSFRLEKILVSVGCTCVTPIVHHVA
Outline: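 Competitive ELISA with plates coated with human IL-17A at 0.2 μg/ml, blocked with 5% skim milk. Compound pre-incubated with IL-17A 10 min at 25 °C, then 16 nM IL-17Ra stock added for 30 min. Bound receptor detected by anti-Fc HRP/TMB, A450. IC50 from variable-slope fit of blank-corrected residual activity.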

Structure (SMILES) | IC50 [nM]
Cc1[nH]nc2c1-c1cc(F)c(NC(=O)[C@@H](NC(=O)c3ccnn3C(C)C)C(C3CC3)C3CC3)cc1CN(CC(C)(F)F)C(=O)C2 [compound 148] | ≤ 50
CCn1nccc1C(=O)N[C@H](C(=O)Nc1cc2c(cc1F)-c1c(n[nH]c1C)CC(=O)N(CC(C)(F)F)C2)C(C1CC1)C1CC1 [compound 149] | ≤ 50
Cc1[nH]nc2c1-c1cc(F)c(NC(=O)[C@@H](NC(=O)c3ccnn3C(C)C)C(C3CC3)C3CC3)cc1CN(C(C)C)C(=O)C2 [compound 150] | ≤ 50
CCn1nccc1C(=O)N[C@H](C(=O)Nc1cc2c(cc1F)-c1c(n[nH]c1C)CC(=O)N(C(C)C)C2)C(C1CC1)C1CC1 [compound 151] | ≤ 50
Cc1[nH]nc2c1-c1cc(F)c(NC(=O)[C@@H](NC(=O)c3ccnn3C(C)C)C(C3CC3)C3CC3)cc1CN(CC(F)(F)F)C(=O)C2 [compound 152] | ≤ 50
Cc1[nH]nc2c1-c1cc(F)c(NC(=O)[C@@H](NC(=O)c3ccnn3C(C)C)C(C3CC3)C3CC3)cc1CN(CC1CC1)C(=O)C2 [compound 153] | ≤ 50
CCN1CCc2n[nH]c(C)c2-c2cc(F)c(NC(=O)[C@@H](NC(=O)c3ccnn3C(C)C)C(C3CC3)C3CC3)cc2C1 [compound 156] | ≤ 50
Cc1[nH]nc2c1-c1cc(F)c(NC(=O)[C@@H](NC(=O)c3ccnn3C(C)C)C(C3CC3)C3CC3)cc1CN(CC(F)F)CC2 [compound 158] | ≤ 50
CCn1nccc1C(=O)N[C@H](C(=O)Nc1cc2c(cc1F)-c1c(n[nH]c1C)CCN(CC(F)F)C2)C(C1CC1)C1CC1 [compound 159] | ≤ 50
Cc1[nH]nc2c1-c1cc(F)c(NC(=O)[C@@H](NC(=O)c3ccnn3C(C)C)C(C3CC3)C3CC3)cc1CN(CC(C)(F)F)CC2 [compound 160] | ≤ 50
CCn1nccc1C(=O)N[C@H](C(=O)Nc1cc2c(cc1F)-c1c(n[nH]c1C)CCN(CC(C)(F)F)C2)C(C1CC1)C1CC1 [compound 161] | ≤ 50
Cc1[nH]nc2c1-c1cc(F)c(NC(=O)[C@@H](NC(=O)c3ccnn3C(C)C)C(C3CC3)C3CC3)cc1CN(CC(F)(F)F)CC2 [compound 164] | ≤ 50
Cc1[nH]nc2c1-c1cc(F)c(NC(=O)[C@@H](NC(=O)c3ccnn3C(C)C)C(C3CC3)C3CC3)cc1CN(C1CC1)CC2 [compound 165] | ≤ 50

The remaining lines, values ahead:

IC50 [nM] | Structure (SMILES)
≤ 50 | CCn1nccc1C(=O)N[C@H](C(=O)Nc1ccc2c(c1)COCCc1n[nH]c(C)c1-2)C(C1CC1)C1CC1 [compound 3]
≤ 50 | Cc1[nH]nc2c1-c1ccc(NC(=O)[C@@H](NC(=O)c3ccnn3C3CC3)C(C3CC3)C3CC3)cc1COCC2 [compound 6]
≤ 50 | Cc1[nH]nc2c1-c1cnc(NC(=O)[C@@H](NC(=O)c3ccnn3C[C@@H]3C[C@H]3F)C(C3CC3)C3CC3)cc1COCC2 [compound 125]
≤ 50 | Cc1[nH]nc2c1-c1cc(F)c(NC(=O)[C@@H](NC(=O)c3ccnn3C(C)C)C(C3CC3)C3CC3)cc1CN(C)C(=O)C2 [compound 132]
≤ 50 | CCn1nccc1C(=O)N[C@H](C(=O)Nc1cc2c(cc1F)-c1c(n[nH]c1C)CC(=O)N(C)C2)C(C1CC1)C1CC1 [compound 133]
≤ 50 | Cc1[nH]nc2c1-c1cc(F)c(NC(=O)[C@@H](NC(=O)c3ccnn3C(C)C)C(C3CC3)C3CC3)cc1CN(C1CC1)C(=O)C2 [compound 136]
≤ 50 | CCN1Cc2cc(NC(=O)[C@@H](NC(=O)c3ccnn3C(C)C)C(C3CC3)C3CC3)c(F)cc2-c2c(n[nH]c2C)CC1=O [compound 142]
≤ 50 | CCN1Cc2cc(NC(=O)[C@@H](NC(=O)c3ccnn3CC)C(C3CC3)C3CC3)c(F)cc2-c2c(n[nH]c2C)CC1=O [compound 143]
≤ 50 | Cc1[nH]nc2c1-c1cc(F)c(NC(=O)[C@@H](NC(=O)c3ccnn3C(C)C)C(C3CC3)C3CC3)cc1CN(CC(F)F)C(=O)C2 [compound 144]
≤ 50 | CCn1nccc1C(=O)N[C@H](C(=O)Nc1cc2c(cc1F)-c1c(n[nH]c1C)CC(=O)N(CC(F)F)C2)C(C1CC1)C1CC1 [compound 145]
